Legend:
[1] = tested on: A375 cells overexpressing B3GNT2; test: Binding of recombinant T cell proteins to A375 cells, flow cytometry; type: cell-based, human; settings: B3GNT2-overexpressing A375 treated with inhibitor; CD2, 4-1BB, TREML2, NKG2D
Protocol: (§1) For glycosylation inhibition, cells were treated with 20 μg/mL Kifunensine (Cayman Chemical 10009437) or 2 mM Benzyl 2-acetamido-2-deoxy-alpha-D-galactopyranoside (BAG; Millipore Sigma B4894-100MG) for 48 h to inhibit N- and O-glycosylation respectively unless otherwise indicated. For MCL1 inhibition, cells were treated with 1-10 μM of S63845 (Selleck Chemicals S8383) or AZD5991 (Selleck Chemicals S8643) for 4 h before incubation with T cells. Both glycosylation and MCL1 inhibitors were maintained at indicated concentrations during co-culture with T cells.
Per condition, 5×10^5 cells were pelleted at 200×g for 5 min and washed once with PBS. Cell were fixed in 4% Formaldehyde in PBS at 4° C. for 10 mins. Cells were washed twice with PBS and resuspended in PBS with 25 μg/mL recombinant Fc chimera proteins [PVRIG (R&D Systems 9365-PV-050), CD226 (R&D Systems 666-DN-050), NKG2D (R&D 1299-NK-050), TREML2 (R&D Systems 3259-TL-050), CD2 (R&D Systems 1856-CD-050), CD96 (R&D Systems 9360-CD-050), TIGIT (BPS Bioscience 71186), CD27 (BPS Bioscience 71176), or 4-1BB (TNFRSF9; Sino Bio 10041-H03H)], 0.1 μg/mL HLA-A2:NY-ESO-1 Fab (Stewart-Jones et al., 2009), 5 μg/mL Fas antibody (Millipore Sigma 05-201), 25 μg/mL TNFRSF10B antibody (Novus Biologicals NB100-56618, 1:200), or Dylight 649 labeled Tomato Lectin (Vector Laboratories DL-1178, 1:100). Cells were incubated at 4° C. for 1 h. Cells were washed twice with PBS and resuspended in PBS with the appropriate secondary antibody [IgG Fc PE (Thermo Fisher Scientific 12-4998-82, 1:50), His Tag Alexa Fluor 647 (Thermo Fisher Scientific MA121315A647), mouse Alexa Fluor 568 (Thermo Fisher Scientific A-11031), or rabbit Alexa Fluor 647 (Thermo Fisher Scientific A-21244)]. Cells stained with Tomato Lectin were not incubated with additional secondary antibodies. […] For each sample, 10,000 cells were analyzed on a CytoFLEX Flow Cytometer (Beckman Coulter) and quantified with FlowJo (FlowJo). For each experiment, median fluorescence values for 3 biological replicates were compared to determine statistical significance.

[2] = tested on: A375 (NY-ESO-1+, HLA-A2+) melanoma cells; test: T cell cytotoxicity assay (CellTiter-Glo), A375 against ESO T cells; type: cell-based, human; settings: B3GNT2-overexpressing A375 pretreated with inhibitor, E:T ratio of 3, kifunensine having a stronger effect
Protocol: Expanded T cells were thawed and maintained in culture media for 8-10 h before incubation with cancer cells. Cancer cells were seeded in 96-well plates and allowed to attach for 3-4 h before T cells were added at the appropriate effector to target cell (E:T) ratio. Paired controls with no T cells added were included for each condition. After 18 h, cancer cells were washed twice with PBS to remove T cells, passaged, and cultured for 2 days. Primary patient-derived cell models were not passaged after T cell co-culture. Viability was measured using CellTiter-Glo (Promega G7571). For each E:T ratio, percent survival was calculated as viability of the cells incubated with T cells divided by viability of the paired control that was not incubated with T cells. For example, CD274-overexpressing melanoma cells that were co-cultured with ESO T cells were compared to CD274-overexpressing melanoma cells that were cultured without T cells in parallel. As an alternative cytotoxicity assay, A375 cells stably expressing Gaussia luciferase were co-cultured with ESO T cells. At each time point, 10% of cell culture media was used for the Gaussia luciferase assay (Targeting Systems GAR-2B) to directly measure cytotoxicity.
as §1

[3] = tested on: ESO T cells co-cultured with A375 cells; test: IFNγ ELISA in culture media of the T cell cytotoxicity assay; type: cell-based, human; settings: B3GNT2-overexpressing A375 pretreated with inhibitor, E:T ratio of 3; kifunensine having a stronger effect
Protocol: Expanded T cells were thawed and maintained in culture media for 8-10 h before incubation with cancer cells. Cancer cells were seeded in 96-well plates and allowed to attach for 3-4 h before T cells were added at the appropriate effector to target cell (E:T) ratio. Paired controls with no T cells added were included for each condition. After 18 h, cancer cells were washed twice with PBS to remove T cells, passaged, and cultured for 2 days. Primary patient-derived cell models were not passaged after T cell co-culture. Viability was measured using CellTiter-Glo (Promega G7571). For each E:T ratio, percent survival was calculated as viability of the cells incubated with T cells divided by viability of the paired control that was not incubated with T cells. […]
To challenge cells with cytokines, cells were incubated with Interferon-γ (IFNγ; Cell Signaling Technology 80385S), FasL (AdipoGen AG-40B-0130-3010), TRAIL (R&D Systems 375-TL-010), or TNF-α (AdipoGen AG-40B-0019-3010) for 24 h. […] Cell viability was measured using CellTiter-Glo (Promega G7571) and protein was harvested for Western blots. […] IFNγ in the cell culture media of the T cell cytotoxic assay was quantified using an ELISA kit (Thermo Fisher Scientific KHC4021). […]

[4] = tested on: A375 cells overexpressing B3GNT2; test: Intra- and extra-cellular poly-LacNAc by tomato lectin staining, flow cytometry; type: cell-based, human; settings: A375 overexpressing B3GNT2, pretreated with different concentrations of inhibitor
Protocol: as §1
Per condition, 5×10^5 cells were pelleted at 200×g for 5 min and washed once with PBS. Cell were fixed in 4% Formaldehyde in PBS at 4° C. for 10 mins. […] For each sample, 10,000 cells were analyzed on a CytoFLEX Flow Cytometer (Beckman Coulter) and quantified with FlowJo (FlowJo). For each experiment, median fluorescence values for 3 biological replicates were compared to determine statistical significance.

N-glycan synthesis = settings: cited from earlier work

Compound: CC(=O)N[C@H]1[C@@H](OCc2ccccc2)O[C@H](CO)[C@H](O)[C@@H]1O [BAG, benzyl-2-acetamido-2-deoxy-α-D-galactopyranoside]
- Binding of recombinant T cell proteins to A375 cells [1]: rescued the reduction in T cell protein binding
- Cell survival against T cell cytotoxicity [2]: reduced A375 survival
- T cell IFNγ secretion [3]: increased T cell IFNγ secretion
- poly-LacNAc measured by tomato lectin staining [4]: reduced poly-LacNAc added by B3GNT2 in a dosage-dependent manner

Compound: tunicamycin
- Inhibition of N-glycan synthesis (N-glycan synthesis): potent inhibitor of N-glycan synthesis

Source: patent US20240261333A1, “NOVEL TARGETS FOR ENHANCING ANTI-TUMOR IMMUNITY” (THE BROAD INSTITUTE, INC., priority 2021, published 2024)
